Measurements: patent US12064516B2, “Pharmaceutical formulations and uses thereof” (Aldeyra Therapeutics, Inc., priority 2020, dated 2024)

Test system: malondialdehyde (MDA)
Assay: Plasma malondialdehyde (MDA) in Phase 1 subjects administered I-1 orally
Type: in vivo, human
Conditions: healthy volunteers

CC(C)(O)c1nc2ccccc2cc1N [I-1]
free MDA levels in plasma: decrease in free MDA levels
